Experimental findings from patent EP2818472A1, “Imidazo[4,5-c]pyridine and pyrrolo[3,2-c]pyridine compounds as G-protein-coupled receptor kinase 5 (GRK5) modulators” (Max-Planck-Gesellschaft zur Förderung der Wissenschaften …, priority 2013, dated 2014) are described below.

The structures appear in SMILES notation. Some results are limits rather than exact numbers.

This experiment deals with beta-TC6 cells. As to the kind of experiment: Insulin HTRF assay (relative activity Ar) in beta-TC6 cells. As to conditions: Mus musculus, Beta-TC6, 4 h, insulin HTRF, supernatant of beta-TC6 cells, incubation with test compound at 37°C for 2, 3, 4h; read-out: Ar (relative activity). Type of experiment: cell-based, mouse. The method, boiled down:
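beta-TC6 cells (15k/well, seeded 24 or 48 h) washed, then exposed to compound in induction buffer (0.5% DMSO final) for 2, 3 or 4 h at 37°C.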
A general note: In TR-FRET formats the signal depends on donor and acceptor labels being close together.
Take `COc1ccc(Nc2nccc3[nH]c(-c4ccc5c(c4)OCCO5)nc23)cc1OC` [Compound 411, 2-(2,3-dihydro-1,4-benzodioxin-6-yl)-N-(3,4-dimethoxyphenyl)-1H-imidazo[4,5-c]pyridin-4-amine]: the Emax was 50 to 100%.
To `COc1ccc(Nc2cc3c(cn2)cc(-c2cnn(C)c2)n3C)cn1` [Compound 130, N-(6-methoxy-3-pyridyl)-1-methyl-2-(1-methylpyrazol-4-yl)pyrrolo[3,2-c]pyridin-6-amine] belongs greater than 100%.
Consider `CC(=O)N(C)c1cccc(-c2cc3cnc(Nc4ccc(C(=O)N(C)C)cc4)cc3n2C)c1` [Compound 172, 4-[[2-[3-[acetyl(methyl)amino]phenyl]-1-methyl-pyrrolo[3,2-c]pyridin-6-yl]amino]-N,N-dimethyl-benzamide], for which the Emax was 50 to 100%.
To `COc1ccc(OC)c(CCNc2nc3cnc(-c4ccc5c(c4)OCO5)cc3n2C)c1` [Compound 816, 6-(1,3-benzodioxol-5-yl)-N-[2-(2,5-dimethoxyphenyl)ethyl]-1-methyl-imidazo[4,5-c]pyridin-2-amine] belongs 0 to 30%; to `COc1ccc(Nc2nccc3c2cc(-c2ccsc2)n3C)cc1O` [Compound 284, 2-methoxy-5-[[1-methyl-2-(3-thienyl)pyrrolo[3,2-c]pyridin-4-yl]amino]phenol], 50 to 100%.
For `COc1ccc(Nc2nccc3[nH]c(-c4ccsc4)cc23)cn1` [Compound 254, N-(6-methoxy-3-pyridyl)-2-(3-thienyl)-1H-pyrrolo[3,2-c]pyridin-4-amine], the Emax was in the range of 50 to 100%.
Turning to `COc1cccc(-c2cc3c(cn2)nc(NCCc2cc(OC)ccc2OC)n3C)c1` [Compound 823, N-[2-(2,5-dimethoxyphenyl)ethyl]-6-(3-methoxyphenyl)-1-methyl-imidazo[4,5-c]pyridin-2-amine], the Emax was 30 to 50%.
To `COc1ccc(Nc2cc3c(cn2)nc(NCc2ccc(OC)c(OC)c2)n3C)cc1` [Compound 606, N2-[(3,4-dimethoxyphenyl)methyl]-N6-(4-methoxyphenyl)-1-methyl-imidazo[4,5-c]pyridine-2,6-diamine] belongs 50 to 100%.
To `CCN(CC)CCNC(=O)c1ccc(Nc2nccc3[nH]c(-c4ccc(C)cc4)nc23)cc1` [Compound 381, N-(2-diethylaminoethyl)-4-[[2-(p-tolyl)-1H-imidazo[4,5-c]pyridin-4-yl]amino]benzamide] belongs 50 to 100%; to `Cn1c(Nc2ccccc2)nc2cnc(Nc3cccnc3)cc21` [Compound 633, 1-methyl-N2-phenyl-N6-(3-pyridyl)imidazo[4,5-c]pyridine-2,6-diamine], 50 to 100%.
For `COc1ccc(Nc2nccc3c2cc(-c2ccsc2)n3C)cn1` [Compound 275, N-(6-methoxy-3-pyridyl)-1-methyl-2-(3-thienyl)pyrrolo[3,2-c]pyridin-4-amine], the Emax lay within 50 to 100%.
To `CNc1nc2cnc(Nc3ccc(OC)cc3)cc2n1-c1cc(OC)c(OC)c(OC)c1` [Compound 490, N6-(4-methoxyphenyl)-N2-methyl-1-(3,4,5-trimethoxyphenyl)imidazo[4,5-c]pyridine-2,6-diamine] belongs 50 to 100%; to `c1ccc(CNc2nccc3[nH]c(-c4cccnc4)nc23)cc1` [Compound 360, N-benzyl-2-(3-pyridyl)-1H-imidazo[4,5-c]pyridin-4-amine], 0 to 30%.
To `CNc1nc2cnc(-c3cccs3)cc2n1Cc1ccc(OC)c(OC)c1` [Compound 880, 1-[(3,4-dimethoxyphenyl)methyl]-N-methyl-6-(2-thienyl)imidazo[4,5-c]pyridin-2-amine] belongs 30 to 50%; to `Cn1c(-c2cccnc2)cc2cnc(Nc3cccnc3)cc21` [Compound 87, 1-methyl-N,2-bis(3-pyridyl)pyrrolo[3,2-c]pyridin-6-amine], 50 to 100%.
With `CN(C)C(=O)c1ccc(-c2cc3cnc(Nc4ccc(C(F)(F)F)cc4)cc3[nH]2)cc1` [Compound 32, N,N-dimethyl-4-[6-[4-(trifluoromethyl)anilino]-1H-pyrrolo[3,2-c]pyridin-2-yl]benzamide], the Emax fell in the range of 30 to 50%.
As for `COC(=O)c1ccc(Nc2cc3[nH]c(-c4ccccn4)cc3cn2)cc1` [Compound 67, methyl 4-[[2-(2-pyridyl)-1H-pyrrolo[3,2-c]pyridin-6-yl]amino]benzoate], the Emax was in the range of 30 to 50%.
To `CNc1nc2cnc(Nc3ccc4c(c3)OCCO4)cc2n1Cc1ccccc1` [Compound 528, 1-benzyl-N6-(2,3-dihydro-1,4-benzodioxin-6-yl)-N2-methyl-imidazo[4,5-c]pyridine-2,6-diamine] belongs 50 to 100%.
Turning to `CNc1nc2cnc(Nc3ccc(SC)cc3)cc2n1Cc1ccc(OC)c(OC)c1` [Compound 675, 1-[(3,4-dimethoxyphenyl)methyl]-N2-methyl-N6-(4-methylsulfanylphenyl)imidazo[4,5-c]pyridine-2,6-diamine], the Emax is 50 to 100%.
With `CNc1nc2cnc(Nc3ccc(SC)cc3)cc2n1CCOC` [Compound 499, 1-(2-methoxyethyl)-N2-methyl-N6-(4-methylsulfanylphenyl)imidazo[4,5-c]pyridine-2,6-diamine] the figure was 50 to 100%.
Consider `CN(C)C(=O)c1ccc(Nc2cc3c(cn2)nc(NCc2ccccc2)n3C)cc1` [Compound 626, 4-[[2-(benzylamino)-1-methyl-imidazo[4,5-c]pyridin-6-yl]amino]-N,N-dimethyl-benzamide], for which the Emax was 30 to 50%.
With `CN1CCN(c2ccc(Nc3nccc4[nH]c(-c5ccccc5)cc34)cc2)CC1` [Compound 320, N-[4-(4-methylpiperazin-1-yl)phenyl]-2-phenyl-1H-pyrrolo[3,2-c]pyridin-4-amine] the figure was 30 to 50%; with `Cn1cc(-c2cc3cnc(Nc4ccccc4)cc3n2C)cn1` [Compound 132, 1-methyl-2-(1-methylpyrazol-4-yl)-N-phenyl-pyrrolo[3,2-c]pyridin-6-amine], 50 to 100%; with `CC(=O)Nc1ccc(Nc2cc3[nH]c(-c4cccnc4)cc3cn2)cc1` [Compound 74, N-[4-[[2-(3-pyridyl)-1H-pyrrolo[3,2-c]pyridin-6-yl]amino]phenyl]acetamide], greater than 100%.
For the compound `c1cc2[nH]c(-c3ccsc3)cc2c(N2CCOCC2)n1` [Compound 191, 4-[2-(3-thienyl)-1H-pyrrolo[3,2-c]pyridin-4-yl]morpholine], the Emax lay in the range of 50 to 100%.
To `CC(C)Oc1ccc(Nc2cc3[nH]c(-c4cccnc4)cc3cn2)cc1` [Compound 81, N-(4-isopropoxyphenyl)-2-(3-pyridyl)-1H-pyrrolo[3,2-c]pyridin-6-amine] belongs 30 to 50%.
To `c1cncc(-c2cc3cnc(N4CCOCC4)cc3[nH]2)c1` [Compound 77, 4-[2-(3-pyridyl)-1H-pyrrolo[3,2-c]pyridin-6-yl]morpholine] belongs 50 to 100%; to `Cn1cncc1-c1cc2cnc(Nc3cccc(F)c3)cc2[nH]1` [Compound 108, N-(3-fluorophenyl)-2-(3-methylimidazol-4-yl)-1H-pyrrolo[3,2-c]pyridin-6-amine], 50 to 100%; to `CNc1nc2cnc(-c3ccc(S(C)(=O)=O)cc3)cc2n1-c1cccc(F)c1` [Compound 684, 1-(3-fluorophenyl)-N-methyl-6-(4-methylsulfonylphenyl)imidazo[4,5-c]pyridin-2-amine], 30 to 50%.
Regarding `CNc1nc2cnc(Nc3ccc(F)c(Cl)c3)cc2n1-c1cc(OC)c(OC)c(OC)c1` [Compound 753, N6-(3-chloro-4-fluoro-phenyl)-N2-methyl-1-(3,4,5-trimethoxyphenyl)imidazo[4,5-c]pyridine-2,6-diamine], the Emax fell in the range of 0 to 30%.
Take `CNc1nc2cnc(Nc3cccc(O)c3)cc2n1-c1cc(OC)c(OC)c(OC)c1` [Compound 491, 3-[[2-(methylamino)-1-(3,4,5-trimethoxyphenyl)imidazo[4,5-c]pyridin-6-yl]amino]phenol]: the Emax was 50 to 100%.
With `COc1ccc(Nc2cc3c(cn2)cc(-c2cccc(N(C)C(C)=O)c2)n3C)cn1` [Compound 161, N-[3-[6-[(6-methoxy-3-pyridyl)amino]-1-methyl-pyrrolo[3,2-c]pyridin-2-yl]phenyl]-N-methyl-acetamide] the figure was 50 to 100%.
As for `COc1cc(-n2cnc3cnc(Nc4cccc(C(F)(F)F)c4)cc32)cc(OC)c1OC` [Compound 690, N-[3-(trifluoromethyl)phenyl]-1-(3,4,5-trimethoxyphenyl)imidazo[4,5-c]pyridin-6-amine], the Emax was greater than 100%.
As to `CC(=O)Nc1ccc(Nc2cc3c(cn2)nc(NCc2cccc(C)c2)n3C)cc1` [Compound 576, N-[4-[[1-methyl-2-(m-tolylmethylamino)imidazo[4,5-c]pyridin-6-yl]amino]phenyl]acetamide], the Emax lay within 50 to 100%.
For `COc1cccc(-c2cc3c(Nc4ccc(OC)c(O)c4)nccc3[nH]2)c1` [Compound 312, 2-methoxy-5-[[2-(3-methoxyphenyl)-1H-pyrrolo[3,2-c]pyridin-4-yl]amino]phenol], the Emax lay in the range of 50 to 100%.
In the case of `Cn1c(-c2ccsc2)cc2c(Nc3ccncn3)nccc21` [Compound 285, 1-methyl-N-pyrimidin-4-yl-2-(3-thienyl)pyrrolo[3,2-c]pyridin-4-amine], the Emax fell in the range of 50 to 100%.
With `CC(=O)c1cccc(Nc2cc3[nH]c(-c4cncn4C)cc3cn2)c1` [Compound 107, 1-[3-[[2-(3-methylimidazol-4-yl)-1H-pyrrolo[3,2-c]pyridin-6-yl]amino]phenyl]ethanone] the figure was 50 to 100%.
With `CNc1nc2cnc(Nc3cc(OC)c(OC)c(OC)c3)cc2n1-c1cc(OC)c(OC)c(OC)c1` [Compound 482, N2-methyl-N6,1-bis(3,4,5-trimethoxyphenyl)imidazo[4,5-c]pyridine-2,6-diamine] the figure was 30 to 50%.
On to `COc1ccc(Nc2nccc3[nH]c(-c4cccc(C(F)(F)F)c4)nc23)cc1` [Compound 356, N-(4-methoxyphenyl)-2-[3-(trifluoromethyl)phenyl]-1H-imidazo[4,5-c]pyridin-4-amine], for which the Emax is greater than 100%.
